# According to patent publication US6417010B1, “Methods and apparatus for synthesizing labeled combinatorial chemistry libraries” (Discovery Partners International, priority 1993, dated 2002):
# System: Monoclonal antibody 3E7
# Test: Magnetic selection of peptide-bearing ELAMS by microbead-conjugated 3E7 antibody
# Assay type: binding
# Settings: PBS, 16 hour incubation at 4° C., high strength magnet
# Method: After a 16 hour incubation at 4° C., beads which bind the 3E7 antibody can be selected using a high strength magnet. The identifier information of the selected beads is then analyzed with a model DAS-4001EM or DAS-4001 detector (Bio Medic Data Systems).
substance,measurement,value
Tyr-Gly-Gly-L-Phe-L-Leu [YGGFL],selection of ELAMS by the 3E7 antibody,selected by the 3E7 antibody
